Source: patent US7105573B2, “Methods and compositions for the treatment of alopecia and other disorders of the pilosebaceous apparatus” (Orentreich Foundation for the Advancement of Science, Inc., priority 2000, dated 2006)
Where a name gives a salt, the structure may show the parent alone. Read-outs that look alike come from different tables or passages of the source. Values belong to the compound of their own block, whether it stands above or below them.

Key:
[1] = Protocol: For production of the test materials described herein, it is dissolved in water to twice the desired final concentration, then mixed with an equal volume of a solution of 4% butylene glycol in special denatured alcohol (SDA) for a final concentration of 50% SDA and 2% butylene glycol. […] Preferred concentrations are about 0.8% to about 2.0%.
(§1) If more neutral solutions are required, a penetration enhancing agent should be used to help deliver the drug to the dermis. […] Some, like dimethylsulfoxide (DMSO), are applied to the skin for 10–15 minutes prior to administration of the drug, while others, such as myristylamine oxide (MAO), SEPA and N-methyl pyrrolidone (NMP), can be added to the inventive composition in the appropriate concentration before applying to the skin.
It is important to remove the salts that are produced during this process. Therefore, the mixture is lyophilized, and the dry powder reconstituted in absolute ethanol.

[2] = remark: listed apart in the source
Protocol: as §1

[3] = Skin irritation of metformin base and salts in 50% SDA / 2% butylene glycol vehicle; format: in vivo; details: applied in 50% SDA, 2% butylene glycol in water
[4] = tested on: age-dependent hair loss in female ob/ob (obese) mice; assay: Oral metformin hydrochloride and age-dependent hair loss in female ob/ob mice (Example 5); format: in vivo
Description: Twenty-one female C57BL/6J ob/ob mice were purchased from the Jackson Laboratory (Bar Harbour, Me.) at five weeks of age. […] Dosages were adjusted on a weekly basis to reflect changes observed in body weight. All animals were group housed and were allowed access to standard laboratory chow and water ad libitum. The progression of hair loss was documented throughout the study.

[5] = tested on: skin of the hairless mouse; assay: Skin redness in hairless mouse, 11 days of treatment; format: in vivo; details: 50 μL, 2× per day
[6] = tested on: hair loss in aged female obese (C57BL/6J-ob/ob) mice; assay: Oral metformin and hair loss in aged female obese mice (Example 1); format: in vivo
Protocol: The objective of the experiments in this Example is to examine the effects of the biguanide […] metformin on hair loss in aged female obese (C57BL/6J-ob/ob) mice. The hypothesis tested is that metformin, when administered in these mice at a relatively young age, will increase insulin sensitivity, thereby preventing or slowing the progression of hair loss.
Animals: Female C57BL/6J Lep , ob/ob. (homozygous) and C57BL/6J Lep <ob/+> (heterozygous) mice are purchased from the Jackson Laboratory (Bar Harbor, Me.). All animals are housed at a density of 2–3 animals per cage and are maintained on a photoperiod of 12 h light: 12 h dark. Food and water are provided ad libitum.
The dosage is adjusted each week to reflect changes in body weight. Since the animals are group housed, the adjustment is made based on the mean weight of the treatment group, rather than on an animal-to-animal basis. The water is changed twice per week. Periodically the concentration of the metformin in the drinking water is verified by HPLC.
Experimental groups: The ob/+ animals are not entered into the study until two weeks after the ob/ob mice. […] Thus, once the ob/+ are 7 weeks of age, they are entered in the study.
Parameters monitored: Body weight, food and water consumption are monitored twice per week. Blood samples are collected from the orbital sinus of unanesthesized mice at the baseline and on a monthly basis for the duration of the study. These blood collections are designed to monitor serum glucose and insulin levels. C-peptide and insulin-like growth factor 1 (IGF-1) are also monitored periodically throughout the study. Blood samples for C-peptide analysis are collected following an overnight fast. Selected animals are photographed throughout the study to document the slowing or progression of hair loss.

[7] = tested on: alopecic female ob/ob mice; assay: Topical biguanide / metformin hair growth in obese (ob/ob) mouse model (Example 3); format: in vivo
Protocol: When pharmaceutically acceptable salts of biguanide were applied in reasonable concentrations (e.g., about 0.5% to about 10%) in a suitable topical vehicle (e.g., solution, tincture, gel, lotion, cream or ointment) containing a suitable penetration enhancing agent (e.g., surfactant, DMSO, N-methyl pyrrolidone), the growth of hair was stimulated in the obese (ob/ob) mouse model.
Two alopecic female ob/ob mice were treated with 0.8% topical metformin for three months beginning at 13 months of age. Applications of 50 ul were made twice per day (except weekends) to the alopecic (intrascapular) site.

[8] = tested on: obese (ob/ob -Thieller background) mouse; details: 240 mg/kg/d in drinking water for 4 weeks; cited from earlier work
[9] = tested on: hair loss in C57BL/6J Lep (ob) female mice; assay: Oral troglitazone ob/ob female mice study (Example 6); format: in vivo; details: 350 days; 0.2% troglitazone in diet; control 100%
Protocol: This study involved oral administration of troglitazone (Rezulin®) to C57BL/6J Lep (ob) female mice.
Non-alopecic female ob/ob mice (7 weeks at start of study) are maintained on a photoperiod of 12 h light:12 h dark. Food (Purina 5001 Meal diet or Purina 5001 with 0.2% troglitazone) and water (acidified pH 2.5) are provided ad libitum.
Troglitazone (Rezulin®) is purchased from Parke-Davis (Morris Plains, NJ) in tablet form. The entire tablet (including the coat) is crushed in a blender prior to being incorporated into the diet. The amount of troglitazone added to the diet is adjusted to account for the weight of the tablet and the actual amount of the drug (400 mg/tablet) incorporated into the tablet.
The progression of hair loss is monitored by the investigator on a weekly to biweekly basis. The dorsal hair coat is photographed on a monthly basis to chart the onset and/or progression of alopecia.

Compound: N=C(N)NC(=N)N [Biguanide, Biguanide (NH2C(═NH)NHC(═NH)NH2)]
long-term chemical stability in water [1]: limited long-term chemical stability in water
solubility in water [1]: water soluble

Compound: CN(C)C(=N)NC(=N)N [Metformin base]
absorbed through skin [2]: 75%–88%
irritation to the skin [3]: significant irritation

Compound: CN(C)C(=N)N=C(N)N.O=C(O)c1cc2ccccc2c(Cc2c(O)c(C(=O)O)cc3ccccc23)c1O [Metformin pamoate, metformin pamoate]
absorbed through skin [2]: < 1%
penetration on addition of SR-38 to the formula [2]: similarly improved
irritation to the skin [3]: no irritation

Compound: CCCCCCCCCCC1COC(=O)N1 (stereo not shown) [SR-38, 4-decyloxazolidin-2-one]
redness on the skin [5]: only mild, temporary redness

Compound: Cc1c(C)c2c(c(C)c1O)CCC(C)(COc1ccc(CC3SC(=O)NC3=O)cc1)O2 (stereo not shown) [troglitazone]
animals exhibiting some degree of hair loss [9]: 60%

More lines, main results first:

penetration to the dermis as a function of pH [2]: improves as pH increases
absorbed through skin ([2]; 6 h): < 1%
percutaneous absorption (absorbed) ([2]; 6 h): <1%
Compound: CN(C)C(=N)N=C(N)N [Metformin HCl, Metformin hydrochloride]
irritation to the skin [3]: no irritation
incidence of hair loss ([4]; 300 days of age, controls about 40%): about 20%
incidence of hair loss ([4]; 370 days of age, excluding animals with only possible thinning of the hair coat, controls greater than 60%): 30%
onset of hair loss ([4]; female ob/ob mice, 240 mg/kg/d in acid water): delayed
incidence of spontaneous skin condition (may resemble acanthosis nigricans or migratory ichthyosis) ([4]; relative to control animals, the majority of which were affected): markedly less incidence

penetration of the applied metformin dose [2]: up to 20%
share of composition passing through the dermis [2]: over 90%
Compound: CN(C)C(=N)N=C(N)N [metformin]
onset of hair loss ([6]; female ob/ob mice, 240 mg/kg/d in drinking water): delayed
hair loss in ob/+ mice ([6]; ob/+ (heterozygous) mice, 240 mg/kg p.o.): not observed
hair loss observed (% of animals affected) ([6]; ob/ob mice at 10 months of age (nearly 8 months of treatment), 240 mg/kg p.o., control 36%): 8%
pigmentation at the alopecic site (onset of anagen) ([7]; 0.8% topical, 50 ul twice per day, after two months of treatment, two alopecic female ob/ob mice, 13 months of age at start): presence of pigmentation at the alopecic site
emergence of new hairs at the alopecic site ([7]; 0.8% topical, the week following two months of treatment): small hairs emerging from the skin
persistence of new hairs after withdrawal of treatment ([7]; observed for 6 weeks after the three-month treatment): new hairs remained intact
concentration of hepatocyte high and low affinity insulin receptors [8]: increase
hypoglycemic response to exogenous insulin [8]: did not alter
plasma insulin levels [8]: lowered
